One test has as its target T1, Human BACE2 (Homo sapiens, UniProt Q9Y5Z0).
T1 construct: the soluble part of the human β-Secretase2 (AA1-AA473) was cloned using BACE2(1-473)-(AVT)-Fc-pDEST12.2 mammalian expression vector; AVT linker (C); made in house
T1 sequence (Q9Y5Z0 21-473): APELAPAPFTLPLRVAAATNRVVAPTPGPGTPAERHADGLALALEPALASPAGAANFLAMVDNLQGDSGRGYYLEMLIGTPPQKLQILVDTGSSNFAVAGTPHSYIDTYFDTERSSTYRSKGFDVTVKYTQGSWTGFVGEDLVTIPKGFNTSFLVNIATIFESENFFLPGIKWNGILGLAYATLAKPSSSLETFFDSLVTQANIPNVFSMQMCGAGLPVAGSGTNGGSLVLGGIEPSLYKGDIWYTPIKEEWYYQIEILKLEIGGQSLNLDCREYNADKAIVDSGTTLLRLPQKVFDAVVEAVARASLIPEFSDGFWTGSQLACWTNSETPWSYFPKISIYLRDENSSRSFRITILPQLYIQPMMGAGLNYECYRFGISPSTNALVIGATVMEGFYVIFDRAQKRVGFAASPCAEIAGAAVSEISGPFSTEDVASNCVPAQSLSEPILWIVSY
Briefly: TR-FRET assay. The class given is biochemical. The following applies: enzyme 2.7 μg/mL, substrate 100 nM, pH4.5. The method, then:
(§1) The β-secretase enzyme used in the TR-FRET was prepared as follows:
(§2) Human BACE1: the cDNA for the soluble part of the human β-Secretase1 (AA1-AA460) was cloned using the BACE1(1-460)-(AVT)-Fc-pGEN-IRES-neo mammalian expression vector. The gene was fused to the Fe domain of IgG1 (affinity tag) and stably cloned into HEK 293 cells. […]
A multidrop Combi was used for the liquid handling. Enzyme (7 μL) was added to the compound plate (containing 0.8 μL of compound in dimethylsulphoxide). The plate was incubated for 10 minutes. Substrate (8 μL) was then added, and the reaction proceeded for 17 minutes at r.t. The reaction was stopped with the addition of Stop solution (5.5 μL, NaOAC, pH 9). Fluorescence was measured on a Pherastar plate reader using HTRF module. […] 5 reference inhibitors with different affinities were used at all screen occasions in dose response.

The subject of the next test is SH-SY5Y cells. Briefly: sAPPβ release assay.
Another test addresses T2, Human BACE1 (Homo sapiens, UniProt P56817).
T2 construct: the soluble part of the human β-Secretase1 (AA1-AA460) was cloned using the BACE1(1-460)-(AVT)-Fc-pGEN-IRES-neo mammalian expression vector; AVT linker (C); made in house
Briefly: Diluted TR-FRET assay. The class given is biochemical. The following applies: 50 times less enzyme, 6.5 h reaction time at r.t.; read-out: IC50 BACE1 (dil. TR-FRET). The method, then:
as §1, §2
A multidrop Combi was used for the liquid handling. Enzyme (7 μL) was added to the compound plate (containing 0.8 μL of compound in dimethylsulphoxide). The plate was incubated for 10 minutes. […] The reaction was stopped with the addition of Stop solution (5.5 μL, NaOAC, pH 9). Fluorescence was measured on a Pherastar plate reader using HTRF module. […] 5 reference inhibitors with different affinities were used at all screen occasions in dose response.

[1] abbreviates: Homo sapiens, SH-SY5Y, read-out: IC50 Cell (sAPPβ release, nM), SH-SY5Y cells, compounds incubated 16-17 h.
[2] abbreviates: Homo sapiens, SH-SY5Y, read-out: IC50 Cell (sAPPβ release, nM).

Counter-ions that a name gives are not always drawn. Like-named read-outs stand apart in the source and are kept apart here.

T2 sequence (P56817 22-460): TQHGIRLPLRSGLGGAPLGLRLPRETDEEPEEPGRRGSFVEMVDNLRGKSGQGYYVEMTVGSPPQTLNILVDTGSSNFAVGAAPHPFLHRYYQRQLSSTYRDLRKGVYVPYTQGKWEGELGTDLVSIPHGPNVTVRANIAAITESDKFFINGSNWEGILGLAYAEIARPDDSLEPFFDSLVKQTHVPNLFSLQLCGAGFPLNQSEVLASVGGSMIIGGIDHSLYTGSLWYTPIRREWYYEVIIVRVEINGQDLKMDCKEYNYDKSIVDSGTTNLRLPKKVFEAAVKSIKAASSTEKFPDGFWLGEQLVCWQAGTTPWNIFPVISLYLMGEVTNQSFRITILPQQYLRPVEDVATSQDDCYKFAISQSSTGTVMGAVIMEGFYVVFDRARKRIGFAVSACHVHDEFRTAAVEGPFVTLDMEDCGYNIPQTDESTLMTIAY

As to `[2H]C1([2H])OC(N)=N[C@]12c1cc(C#CC(C)C)ccc1C[C@@]21CC[C@H](O)[C@@H](C)C1` (racemic) [Compound 11, (1S,3S,4S)-2″-amino-3-methyl-6′-(3-methylbut-1-yn-1-yl)-3′H,5″H-dispiro[cyclohexane-1,2′-indene-1′,4″-oxazol]-5″,5″-d2-4-ol and (1R,3R,4R)-2″-amino-3-methyl-6′-(3-methylbut-1-yn-1-yl)-3′H,5″H-dispiro[cyclohexane-1,2′-indene-1′,4″-oxazol]-5″,5″-d2-4-ol], the half-maximal inhibitory concentration (IC50) at Human BACE2 amounted to 519 nM; with SH-SY5Y cells (setting [1]) it was 0.9 nM; at Human BACE1, 266 nM.
The corresponding values for `[2H]C1([2H])OC(N)=N[C@]12c1cc(-c3cncc(C4CC4)c3)ccc1C[C@]21CC[C@@H](OC)[C@H](C)C1` [Compound 1, (1R,1′R,3R,4R)-6′-(5-cyclopropylpyridin-3-yl)-4-methoxy-3-methyl-3′H,5″H-dispiro[cyclohexane-1,2′-indene-1′,4″-oxazol]-5″,5″-d2-2″-amine formate Salt] are 144 nM, 5.3 nM and 239 nM.
The corresponding values for `[2H]C1([2H])OC(N)=N[C@]12c1cc(-c3cncc(C#CC)c3)ccc1C[C@]21CC[C@@H](OC)[C@H](C)C1` [Compound 2, (1R,1′R,3R,4R)-4-methoxy-3-methyl-6′-(5-(prop-1-yn-1-yl)pyridin-3-yl)-3′H,5″H-dispiro[cyclohexane-1,2′-indene-1′,4″-oxazol]-5″,5″-d2-2″-amine] are 17 nM, 0.27 nM and 6.2 nM.
The like results for `[2H]C1([2H])OC(N)=N[C@]12c1cc(-c3cncc(C#CC)c3)ccc1C[C@@]21CC[C@H](OC)[C@@H](C)C1` [Compound 3, (1S,1′R,3S,4S)-4-methoxy-3-methyl-6′-(5-(prop-1-yn-1-yl)pyridin-3-yl)-3′H,5″H-dispiro[cyclohexane-1,2′-indene-1′,4″-oxazol]-5″,5″-d2-2″-amine] were, in that order, 16 nM, 0.2 nM and 1.1 nM.
On to `[2H]C1([2H])OC(N)=N[C@]12c1cc(-c3cncc(Cl)c3)ccc1C[C@@]21CC[C@H](OC)[C@@H](C)C1` [Compound 4, (1S,1′R,3S,4S)-6′-(5-chloropyridin-3-yl)-4-methoxy-3-methyl-3′H,5″H-dispiro[cyclohexane-1,2′-indene-1′,4″-oxazol]-5″,5″-d2-2″-amine], for which the half-maximal inhibitory concentration (IC50) worked out at 37.8 nM at Human BACE2, 0.39 nM in the test on SH-SY5Y cells (setting [1]) and 6.8 nM at Human BACE1.
For the compound `CO[C@H]1CC[C@]2(CC1)Cc1ccc(-c3cncnc3)cc1C21COC(N)=N1` (some centres unmarked) [Compound 50, (1r,4r)-4-methoxy-6′-(pyrimidin-5-yl)-3′H,5″H-dispiro[cyclohexane-1,2′-indene-1′,4″-oxazol]-2″-amine], the values for the IC50 with SH-SY5Y cells (setting [2]) and on Human BACE1 were 16 nM and 579 nM, respectively.
Take `[2H]C1([2H])OC(N)=NC12c1cc(-c3cc(Cl)cc(C#N)c3)ccc1C[C@@]21C[C@@H](C)[C@H](OC)[C@@H](C)C1` (stereo partly drawn) [Compound 52, 3-((1r,3R,4r,5S)-2″-amino-4-methoxy-3,5-dimethyl-3′H,5″H-dispiro[cyclohexane-1,2′-indene-1′,4″-oxazol]-6′-yl-5″,5″-d2)-5-chlorobenzonitrile]: the 50% inhibitory concentration (IC50) with SH-SY5Y cells (read-out: IC50 Cell (sAPPβ release), SH-SY5Y cells, compounds incubated 16-17 h) stood at 4.3 nM; at Human BACE1 it was 4.7 nM.
In the case of `[2H]C1([2H])OC(N)=N[C@]12c1cc(-c3cccnc3)ccc1C[C@]21CC[C@@H](OC)CC1` [Compound 117, {(1r,1′R,4R)-4-methoxy-6′-(pyrimidin-3-yl)-3′H,5″H-dispiro[cyclohexane-1,2′-indene-1′,4″-oxazol]-5″,5″-d2-2″-amine}], the figures for the concentration for half-maximal inhibition (IC50) with SH-SY5Y cells (setting [2]) and on Human BACE1 were 7 nM and 341 nM, respectively.
The corresponding values for `[2H]C1([2H])OC(N)=N[C@]12c1cc(-c3cncnc3)ccc1C[C@]21CC[C@@H](OC)CC1` [Compound 118, {(1r,1′R,4R)-4-methoxy-6′-(pyrimidin-5-yl)-3′H,5″H-dispiro[cyclohexane-1,2′-indene-1′,4″-oxazol]-5″,5″-d2-2″-amine}] are 6 nM and 287 nM.
